Experimental findings from patent publication US7601745B2, “Heterocyclic NF-kB inhibitors” (4SC AG, priority 2004, dated 2009) are described below.

One experiment deals with A549-NF-κB-SEAP reporter cells. Nature of the experiment: Inhibition of NF-κB-induced inflammation ([…] NINA Instant Assay, SEAP reporter). It counts as cell-based. The note with it: compounds of formula (I); TNF-α stimulated reporter cells; test concentration not given. The essentials:
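Reporter cells reactivated 18 h at 37° C, pre-incubated 4.5 h with compound (0.01 up to 100 μM), then stimulated with 2 ng/ml TNF-α for 22 h. SEAP measured by CSPD chemiluminescence (40 min) after endogenous phosphatase inactivation; EC50 fitted from quadruplicates.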
Regarding `O=C(c1csc(C2CCN(S(=O)(=O)c3ccc(Cl)cc3)CC2)n1)N1CCN(c2cccc(C(F)(F)F)c2)CC1` [compound 206], the “Biological activity (NF-κB inflammation assay, inhibition)” value is on record as “+ (“+” stands for 50-80% inhibition)”. Still for that read-out and setting: the entry for `CC(=O)Nc1ccc(S(=O)(=O)N2CCC(c3nc(C(=O)N4CCN(c5cccc(C(F)(F)F)c5)CC4)cs3)CC2)cc1` [compound 207] is “+ (“+” stands for 50-80% inhibition)”; for `O=C(c1csc(C2CCN(S(=O)(=O)c3ccccc3)CC2)n1)N1CCN(c2cccc(C(F)(F)F)c2)CC1` [compound 208] it is “+ (“+” stands for 50-80% inhibition)”.

Take `COc1cccc(C(=O)N2CCC(c3nc(C(=O)N4CCN(c5cccc(C(F)(F)F)c5)CC4)cs3)CC2)c1` [compound 209]: the “Biological activity (NF-κB inflammation assay, inhibition)” value is “+ (“+” stands for 50-80% inhibition)”. `CN1CCOc2cc(C(=O)N3CCC(c4nc(C(=O)N5CCN(c6cccc(C(F)(F)F)c6)CC5)cs4)CC3)ccc21` [compound 210]: the “Biological activity (NF-κB inflammation assay, inhibition)” value is listed as “++ (“++” means 80-90%)”. On the same count and under the same terms, the entry for `O=C(c1ccc2nccnc2c1)N1CCC(c2nc(C(=O)N3CCN(c4cccc(C(F)(F)F)c4)CC3)cs2)CC1` [compound 211] is “+ (“+” stands for 50-80% inhibition)”; for `O=C(c1csc(C2CCN(C(=O)c3cccs3)CC2)n1)N1CCN(c2cccc(C(F)(F)F)c2)CC1` [compound 212] it is “+ (“+” stands for 50-80% inhibition)”. On the same count and under the same terms, the entry for `O=C(c1csc(C2CCN(C(=O)c3cc4ccccc4s3)CC2)n1)N1CCN(c2cccc(C(F)(F)F)c2)CC1` [compound 213] is “++ (“++” means 80-90%)”; for `O=C(C=Cc1ccccc1)N1CCC(c2nc(C(=O)N3CCN(c4cccc(C(F)(F)F)c4)CC3)cs2)CC1` [compound 214] it is “++ (“++” means 80-90%)”; for `O=C(c1ccc(C(F)(F)F)c(F)c1)N1CCC(c2nc(C(=O)N3CCN(c4cccc(C(F)(F)F)c4)CC3)cs2)CC1` [compound 215] it is “+++ (“+++” stands for 90-100% inhibition)”. Still for that read-out and setting: the entry for `Cn1nc(C(C)(C)C)cc1C(=O)N1CCC(c2nc(C(=O)N3CCN(c4cccc(C(F)(F)F)c4)CC3)cs2)CC1` [compound 216] is “++ (“++” means 80-90%)”. Turning to `O=C(c1csc(C2CCN(C(=O)C3COc4ccccc4O3)CC2)n1)N1CCN(c2cccc(C(F)(F)F)c2)CC1` (centres unmarked) [compound 217], the “Biological activity (NF-κB inflammation assay, inhibition)” value is given as “+++ (“+++” stands for 90-100% inhibition)”. The same measure, in the same setting: the entry for `O=C(c1csc(C2CCN(C(=O)c3cc(-c4ccc(Cl)cc4)oc3C(F)(F)F)CC2)n1)N1CCN(c2cccc(C(F)(F)F)c2)CC1` [compound 218] is “+++ (“+++” stands for 90-100% inhibition)”; for `Cc1noc(C)c1C(=O)N1CCC(c2nc(C(=O)N3CCN(c4cccc(C(F)(F)F)c4)CC3)cs2)CC1` [compound 219] it is “+ (“+” stands for 50-80% inhibition)”; for `Cc1nnsc1C(=O)N1CCC(c2nc(C(=O)N3CCN(c4cccc(C(F)(F)F)c4)CC3)cs2)CC1` [compound 221] it is “+ (“+” stands for 50-80% inhibition)”. Still for that read-out and setting: the entry for `O=C(c1cccnc1)N1CCC(c2nc(C(=O)N3CCN(c4cccc(C(F)(F)F)c4)CC3)cs2)CC1` [compound 222] is “+ (“+” stands for 50-80% inhibition)”. Take `O=C(c1csc(C2CCN(C(=O)c3ccccc3OC(F)(F)F)CC2)n1)N1CCN(c2cccc(C(F)(F)F)c2)CC1` [compound 223]: the “Biological activity (NF-κB inflammation assay, inhibition)” value is listed as “+++ (“+++” stands for 90-100% inhibition)”. Take `O=C(CCC1CCCC1)N1CCC(c2nc(C(=O)N3CCN(c4cccc(C(F)(F)F)c4)CC3)cs2)CC1` [compound 224]: the “Biological activity (NF-κB inflammation assay, inhibition)” value is listed as “+ (“+” stands for 50-80% inhibition)”.

Take `COc1cc(C(=O)N2CCC(c3nc(C(=O)N4CCN(c5cccc(C(F)(F)F)c5)CC4)cs3)CC2)cc(OC)c1OC` [compound 225]: the “Biological activity (NF-κB inflammation assay, inhibition)” value is “+ (“+” stands for 50-80% inhibition)”. On the same count and under the same terms, the entry for `CN(C)c1cccc(C(=O)N2CCC(c3nc(C(=O)N4CCN(c5cccc(C(F)(F)F)c5)CC4)cs3)CC2)c1` [compound 226] is “++ (“++” means 80-90%)”; for `COc1ccccc1N1CCN(C(=O)c2csc(C3CCN(C(=O)Cc4ccc(F)cc4)CC3)n2)CC1` [compound 229] it is “+ (“+” stands for 50-80% inhibition)”. The same measure, in the same setting: the entry for `O=C(c1csc(C2CCN(C(=O)c3ccco3)CC2)n1)N1CCN(c2cccc(C(F)(F)F)c2)CC1` [compound 230] is “+ (“+” stands for 50-80% inhibition)”; for `CCCCN1CCN(C(=O)c2csc(C3CCN(C(=O)Cc4ccc(F)cc4)CC3)n2)CC1` [compound 231] it is “+ (“+” stands for 50-80% inhibition)”; for `O=C(Cc1ccc(F)cc1)N1CCC(c2nc(C(=O)N3CCN(c4ccccn4)CC3)cs2)CC1` [compound 237] it is “+ (“+” stands for 50-80% inhibition)”. Same read-out and setting: the entry for `O=C(Cc1ccc(F)cc1)N1CCC(c2nc(C(=O)N3CCN(c4cccc(Cl)c4)CC3)cs2)CC1` [compound 238] is “+ (“+” stands for 50-80% inhibition)”.

Still in this experiment, the particulars now being: compounds of formula (Ic); TNF-α stimulated reporter cells; test concentration not given.
Turning to `COc1cc2c(cc1OC)CN(C(=O)c1csc(C3CCN(C(=O)Cc4ccc(F)cc4)CC3)n1)C(C)C2` (centres unmarked) [compound 232], the “Biological activity (NF-κB inflammation assay, inhibition)” value is recorded as “+ (“+” stands for 50-80% inhibition)”. `CC1c2cc(O)c(O)cc2CCN1C(=O)c1csc(C2CCN(C(=O)Cc3ccc(F)cc3)CC2)n1` (centres unmarked) [compound 233]: the “Biological activity (NF-κB inflammation assay, inhibition)” value is on record as “+ (“+” stands for 50-80% inhibition)”. Same read-out and setting: the entry for `COc1cc2c(cc1OC)C(C)N(C(=O)c1csc(C3CCN(C(=O)Cc4ccc(F)cc4)CC3)n1)CC2` (centres unmarked) [compound 234] is “+ (“+” stands for 50-80% inhibition)”; for `CNc1ccc(Cl)cc1C1c2ccccc2CCN1C(=O)c1csc(C2CCN(C(=O)Cc3ccc(F)cc3)CC2)n1` (centres unmarked) [compound 235] it is “+ (“+” stands for 50-80% inhibition)”.
